Measured values as given in paper PMC3063124 (The Journal of neuroscience : the official journal of the …, 2011).
“And” between values parts separate entries of the source, which are not always exact repeats. Identical values can stand only once. Marks after values point to notes of the source that are not given here.

Tests used:
Format in all cases: cell-based
[1] = molecular target: GluN1/GluN2D QEQY/HDYS (Rattus norvegicus, UniProt Q62645, E700D/Q699H/Q701Y/Y702S); assay: Two-electrode voltage-clamp recordings, mutant receptor in Xenopus oocytes
[2] = molecular target: GluN1/GluN2D QEQY/HDYS (Rattus norvegicus, UniProt P35439+Q62645, E700D/Q699H/Q701Y/Y702S); assay: as above
[3] = molecular target: GluN1/GluN2D Q701Y (Rattus norvegicus, UniProt P35439+Q62645, Q701Y); assay: as above
[4] = molecular target: GluN1/GluN2D Q701Y (Rattus norvegicus, UniProt Q62645, Q701Y); assay: as above
[5] = molecular target: GluN1/2A-(2D S2) chimera (Rattus norvegicus, UniProt Q00959+Q62645); assay: Two-electrode voltage-clamp recordings, chimeric receptor in Xenopus oocytes
[6] = molecular target: GluN1/2A-(2D S1+S2) chimera (Rattus norvegicus, UniProt Q00959+Q62645); assay: as above
[7] = molecular target: GluN1/GluN2D QEQY/HDYS + L705F + K779Y (Rattus norvegicus, UniProt P35439+Q62645, E700D/K779Y/L705F/Q699H/Q701Y/Y702S); assay: Two-electrode voltage-clamp recordings, mutant receptor in Xenopus oocytes
[8] = molecular target: GluN1/GluN2D QEQY/HDYS + L705F + K779Y (Rattus norvegicus, UniProt Q62645, E700D/K779Y/L705F/Q699H/Q701Y/Y702S); assay: as above
[9] = molecular target: GluN1/GluN2B (Rattus norvegicus, UniProt Q00960)
[10] = molecular target: GluN1/GluN2D (Rattus norvegicus, UniProt Q62645)
[11] = molecular target: GluN1/2A-(2D S1) chimera (Rattus norvegicus, UniProt Q00959+Q62645); assay: Two-electrode voltage-clamp recordings, chimeric receptor in Xenopus oocytes
[12] = molecular target: GluN1/GluN2D K779Y (Rattus norvegicus, UniProt P35439+Q62645, K779Y); assay: Two-electrode voltage-clamp recordings, mutant receptor in Xenopus oocytes
[13] = molecular target: GluN1/GluN2D K779Y (Rattus norvegicus, UniProt Q62645, K779Y); assay: as above
[14] = molecular target: GluN1/GluN2C (Rattus norvegicus, UniProt Q00961)
[15] = molecular target: GluN1/GluN2D Y729A (Rattus norvegicus, UniProt Q62645, Y729A); assay: Two-electrode voltage-clamp recordings, mutant receptor in Xenopus oocytes
[16] = molecular target: GluN1/GluN2D Y729A (Rattus norvegicus, UniProt P35439+Q62645, Y729A); assay: as above
[17] = molecular target: GluN1/GluN2A HDYS/QEQY + F680L + Y754K (Rattus norvegicus, UniProt Q00959, D675E/F680L/H674Q/S677Y/Y676Q/Y754K); assay: as above
[18] = molecular target: GluN1/GluN2A HDYS/QEQY + F680L + Y754K (Rattus norvegicus, UniProt P35439+Q00959, D675E/F680L/H674Q/S677Y/Y676Q/Y754K); assay: as above
[19] = molecular target: GluN1/GluN2D A752V (Rattus norvegicus, UniProt P35439+Q62645, A752V); assay: as above
[20] = molecular target: GluN1/GluN2D A752V (Rattus norvegicus, UniProt Q62645, A752V); assay: as above
[21] = molecular target: GluN1/GluN2D Y723A (Rattus norvegicus, UniProt P35439+Q62645, Y723A); assay: as above
[22] = molecular target: GluN1/GluN2D Y723A (Rattus norvegicus, UniProt Q62645, Y723A); assay: as above
[23] = molecular target: GluN1/GluN2D L705F (Rattus norvegicus, UniProt Q62645, L705F); assay: as above
[24] = fixed during fitting to the Hill equation
[25] = fold shift relative to GluN1/GluN2D

Sequence of GluN1/GluN2C (Q00961 20-1237, other chains not shown): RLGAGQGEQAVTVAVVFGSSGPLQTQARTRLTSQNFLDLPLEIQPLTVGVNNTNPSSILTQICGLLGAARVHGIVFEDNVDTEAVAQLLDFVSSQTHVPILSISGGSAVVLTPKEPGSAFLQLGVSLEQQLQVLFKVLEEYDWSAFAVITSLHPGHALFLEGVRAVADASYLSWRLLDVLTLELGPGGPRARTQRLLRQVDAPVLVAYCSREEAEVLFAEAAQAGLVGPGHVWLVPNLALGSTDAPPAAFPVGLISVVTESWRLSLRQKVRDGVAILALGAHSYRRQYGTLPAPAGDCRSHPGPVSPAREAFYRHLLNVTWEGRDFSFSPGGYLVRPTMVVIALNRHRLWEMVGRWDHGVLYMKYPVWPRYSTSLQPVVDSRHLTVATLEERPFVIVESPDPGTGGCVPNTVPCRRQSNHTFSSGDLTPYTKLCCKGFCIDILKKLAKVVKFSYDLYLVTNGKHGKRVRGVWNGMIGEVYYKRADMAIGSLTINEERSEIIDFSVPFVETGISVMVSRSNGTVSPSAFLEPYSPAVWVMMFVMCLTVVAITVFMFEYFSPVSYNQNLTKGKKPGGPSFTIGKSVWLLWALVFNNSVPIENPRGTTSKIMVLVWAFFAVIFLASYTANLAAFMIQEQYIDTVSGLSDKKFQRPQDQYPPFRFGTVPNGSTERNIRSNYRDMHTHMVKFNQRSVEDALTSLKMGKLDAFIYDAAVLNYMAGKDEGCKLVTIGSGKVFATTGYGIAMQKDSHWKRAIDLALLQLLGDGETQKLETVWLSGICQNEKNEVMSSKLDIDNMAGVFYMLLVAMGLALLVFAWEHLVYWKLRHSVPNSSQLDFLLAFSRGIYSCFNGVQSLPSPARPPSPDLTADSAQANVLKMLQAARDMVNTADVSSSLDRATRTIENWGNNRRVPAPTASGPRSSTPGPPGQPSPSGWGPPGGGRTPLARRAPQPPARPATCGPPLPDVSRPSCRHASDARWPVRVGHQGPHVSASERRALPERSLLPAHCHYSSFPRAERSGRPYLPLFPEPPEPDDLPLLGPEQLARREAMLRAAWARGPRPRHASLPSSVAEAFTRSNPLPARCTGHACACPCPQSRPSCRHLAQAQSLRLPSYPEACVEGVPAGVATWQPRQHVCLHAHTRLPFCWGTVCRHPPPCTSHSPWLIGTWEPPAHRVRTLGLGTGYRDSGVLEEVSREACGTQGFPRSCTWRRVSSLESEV
Sequence of GluN1/GluN2B (Q00960 27-1482, other chains not shown): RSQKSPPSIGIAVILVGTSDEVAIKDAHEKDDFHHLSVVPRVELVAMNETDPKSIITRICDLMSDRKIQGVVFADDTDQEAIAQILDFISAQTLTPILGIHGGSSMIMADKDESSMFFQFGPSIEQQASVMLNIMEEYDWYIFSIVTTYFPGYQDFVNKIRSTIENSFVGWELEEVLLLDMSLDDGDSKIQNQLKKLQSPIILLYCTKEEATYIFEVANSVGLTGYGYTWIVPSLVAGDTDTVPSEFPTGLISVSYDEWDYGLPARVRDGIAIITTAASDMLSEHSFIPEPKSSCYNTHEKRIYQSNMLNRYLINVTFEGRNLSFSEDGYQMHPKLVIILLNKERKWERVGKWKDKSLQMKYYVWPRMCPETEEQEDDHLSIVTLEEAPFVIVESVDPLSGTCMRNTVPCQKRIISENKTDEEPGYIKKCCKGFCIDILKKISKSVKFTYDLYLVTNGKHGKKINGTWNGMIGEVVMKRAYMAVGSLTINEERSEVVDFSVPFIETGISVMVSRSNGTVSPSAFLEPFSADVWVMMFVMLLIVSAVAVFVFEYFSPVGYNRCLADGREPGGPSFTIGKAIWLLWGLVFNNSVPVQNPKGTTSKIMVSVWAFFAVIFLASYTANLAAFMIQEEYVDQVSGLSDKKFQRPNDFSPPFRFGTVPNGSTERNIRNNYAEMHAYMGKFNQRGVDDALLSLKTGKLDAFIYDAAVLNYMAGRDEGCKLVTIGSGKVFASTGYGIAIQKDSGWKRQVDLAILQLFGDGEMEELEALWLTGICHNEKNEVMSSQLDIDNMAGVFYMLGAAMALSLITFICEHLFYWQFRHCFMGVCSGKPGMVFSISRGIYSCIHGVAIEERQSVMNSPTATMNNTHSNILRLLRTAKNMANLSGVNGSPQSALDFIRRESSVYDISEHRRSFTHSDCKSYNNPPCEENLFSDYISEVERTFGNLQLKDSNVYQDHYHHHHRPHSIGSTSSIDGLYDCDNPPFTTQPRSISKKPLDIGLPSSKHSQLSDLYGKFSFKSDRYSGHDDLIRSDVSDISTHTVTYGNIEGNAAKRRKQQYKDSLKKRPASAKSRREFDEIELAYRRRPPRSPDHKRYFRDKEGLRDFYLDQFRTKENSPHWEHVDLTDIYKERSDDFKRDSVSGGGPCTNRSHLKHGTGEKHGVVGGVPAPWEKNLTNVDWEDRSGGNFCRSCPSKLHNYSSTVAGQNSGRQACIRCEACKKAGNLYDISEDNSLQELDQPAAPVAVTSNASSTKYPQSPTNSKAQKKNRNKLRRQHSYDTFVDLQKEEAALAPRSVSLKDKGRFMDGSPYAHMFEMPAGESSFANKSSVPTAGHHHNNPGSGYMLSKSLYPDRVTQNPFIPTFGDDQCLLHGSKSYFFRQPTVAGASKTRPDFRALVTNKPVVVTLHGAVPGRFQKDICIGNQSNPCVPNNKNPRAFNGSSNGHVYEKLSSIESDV

COc1ccc2nc(/C=C/c3cccc([N+](=O)[O-])c3)n(-c3ccc(C(=O)O)cc3)c(=O)c2c1 [QNZ46, (E)-4-(6-methoxy-2-(3-nitrostyryl)-4-oxoquinazolin-3(4H)-yl)-benzoic acid]
nH (Hill slope) [1]: 1.0 | Relative IC50 (IC50 2X / IC50 2D) ([1]; fold shift relative to GluN2D): 2.6 | IC50 [2]: 10 ± 1 µM | IC50 [3]: 7.7 ± 0.7 µM | nH (Hill slope) [4]: 1.0 | Relative IC50 (IC50 2X / IC50 2D) ([4]; fold shift relative to GluN2D): 2.0 | nH (Hill slope) [5]: 1.1 | Relative IC50 (IC50 2X / IC50 2D) ([5]; fold shift relative to GluN2D): 1.2 | nH (Hill slope) [6]: 1.1 | Relative IC50 (IC50 2X / IC50 2D) ([6]; fold shift relative to GluN2D): 1.2 | IC50 [7]: 15 ± 1 µM | nH (Hill slope) [8]: 1.0 | Relative IC50 (IC50 2X / IC50 2D) ([8]; fold shift relative to GluN2D): 3.8 | nH (Hill slope) [9, 24]: 1.0 ^a | Relative IC50 (IC50 2X / IC50 2D) [9, 25]: 49 | nH (Hill slope) [10]: 1.1 | selectivity for GluN2C- and GluN2D-containing receptors over receptors containing GluN2A or GluN2B [10]: ~ 50 fold | Relative IC50 (IC50 2X / IC50 2D) [10, 25]: 1.0 | difference in QNZ46 IC50 values between GluN2A- and GluN2D-containing receptors ([10]; rat, xenopus oocytes): ~ 50 fold and 50 fold | nH (Hill slope) [11, 24]: 1.0 ^a | Relative IC50 (IC50 2X / IC50 2D) ([11]; fold shift relative to GluN2D): 23 | IC50 [12]: 19 ± 2 µM | nH (Hill slope) [13]: 1.2 | Relative IC50 (IC50 2X / IC50 2D) ([13]; fold shift relative to GluN2D): 4.9 | nH (Hill slope) [14]: 1.0 | Relative IC50 (IC50 2X / IC50 2D) [14, 25]: 1.8 | nH (Hill slope) [15]: 1.0 | Relative IC50 (IC50 2X / IC50 2D) ([15]; fold shift relative to GluN2D): 0.2 | IC50 [16]: 0.7 ± 0.04 µM | nH (Hill slope) [17]: 1.2 | Relative IC50 (IC50 2X / IC50 2D) ([17]; fold shift relative to GluN2D): 4.4 | IC50 [18]: 17 ± 1 µM | IC50 [19]: 16 ± 1 µM | nH (Hill slope) [20]: 1.0 | Relative IC50 (IC50 2X / IC50 2D) ([20]; fold shift relative to GluN2D): 4.1 | IC50 [21]: 7.6 ± 0.6 µM | nH (Hill slope) [22]: 1.3 | Relative IC50 (IC50 2X / IC50 2D) ([22]; fold shift relative to GluN2D): 1.9 | nH (Hill slope) [23]: 1.1 | Relative IC50 (IC50 2X / IC50 2D) ([23]; fold shift relative to GluN2D): 5.9
